Where a name gives a salt, the structure may show the parent alone.

This test deals with T1, recombinant human baculovirus-expressed GST-tagged FASN (Homo sapiens, UniProt P49327).
T1 construct: GST
T1 sequence (P49327 whole entry): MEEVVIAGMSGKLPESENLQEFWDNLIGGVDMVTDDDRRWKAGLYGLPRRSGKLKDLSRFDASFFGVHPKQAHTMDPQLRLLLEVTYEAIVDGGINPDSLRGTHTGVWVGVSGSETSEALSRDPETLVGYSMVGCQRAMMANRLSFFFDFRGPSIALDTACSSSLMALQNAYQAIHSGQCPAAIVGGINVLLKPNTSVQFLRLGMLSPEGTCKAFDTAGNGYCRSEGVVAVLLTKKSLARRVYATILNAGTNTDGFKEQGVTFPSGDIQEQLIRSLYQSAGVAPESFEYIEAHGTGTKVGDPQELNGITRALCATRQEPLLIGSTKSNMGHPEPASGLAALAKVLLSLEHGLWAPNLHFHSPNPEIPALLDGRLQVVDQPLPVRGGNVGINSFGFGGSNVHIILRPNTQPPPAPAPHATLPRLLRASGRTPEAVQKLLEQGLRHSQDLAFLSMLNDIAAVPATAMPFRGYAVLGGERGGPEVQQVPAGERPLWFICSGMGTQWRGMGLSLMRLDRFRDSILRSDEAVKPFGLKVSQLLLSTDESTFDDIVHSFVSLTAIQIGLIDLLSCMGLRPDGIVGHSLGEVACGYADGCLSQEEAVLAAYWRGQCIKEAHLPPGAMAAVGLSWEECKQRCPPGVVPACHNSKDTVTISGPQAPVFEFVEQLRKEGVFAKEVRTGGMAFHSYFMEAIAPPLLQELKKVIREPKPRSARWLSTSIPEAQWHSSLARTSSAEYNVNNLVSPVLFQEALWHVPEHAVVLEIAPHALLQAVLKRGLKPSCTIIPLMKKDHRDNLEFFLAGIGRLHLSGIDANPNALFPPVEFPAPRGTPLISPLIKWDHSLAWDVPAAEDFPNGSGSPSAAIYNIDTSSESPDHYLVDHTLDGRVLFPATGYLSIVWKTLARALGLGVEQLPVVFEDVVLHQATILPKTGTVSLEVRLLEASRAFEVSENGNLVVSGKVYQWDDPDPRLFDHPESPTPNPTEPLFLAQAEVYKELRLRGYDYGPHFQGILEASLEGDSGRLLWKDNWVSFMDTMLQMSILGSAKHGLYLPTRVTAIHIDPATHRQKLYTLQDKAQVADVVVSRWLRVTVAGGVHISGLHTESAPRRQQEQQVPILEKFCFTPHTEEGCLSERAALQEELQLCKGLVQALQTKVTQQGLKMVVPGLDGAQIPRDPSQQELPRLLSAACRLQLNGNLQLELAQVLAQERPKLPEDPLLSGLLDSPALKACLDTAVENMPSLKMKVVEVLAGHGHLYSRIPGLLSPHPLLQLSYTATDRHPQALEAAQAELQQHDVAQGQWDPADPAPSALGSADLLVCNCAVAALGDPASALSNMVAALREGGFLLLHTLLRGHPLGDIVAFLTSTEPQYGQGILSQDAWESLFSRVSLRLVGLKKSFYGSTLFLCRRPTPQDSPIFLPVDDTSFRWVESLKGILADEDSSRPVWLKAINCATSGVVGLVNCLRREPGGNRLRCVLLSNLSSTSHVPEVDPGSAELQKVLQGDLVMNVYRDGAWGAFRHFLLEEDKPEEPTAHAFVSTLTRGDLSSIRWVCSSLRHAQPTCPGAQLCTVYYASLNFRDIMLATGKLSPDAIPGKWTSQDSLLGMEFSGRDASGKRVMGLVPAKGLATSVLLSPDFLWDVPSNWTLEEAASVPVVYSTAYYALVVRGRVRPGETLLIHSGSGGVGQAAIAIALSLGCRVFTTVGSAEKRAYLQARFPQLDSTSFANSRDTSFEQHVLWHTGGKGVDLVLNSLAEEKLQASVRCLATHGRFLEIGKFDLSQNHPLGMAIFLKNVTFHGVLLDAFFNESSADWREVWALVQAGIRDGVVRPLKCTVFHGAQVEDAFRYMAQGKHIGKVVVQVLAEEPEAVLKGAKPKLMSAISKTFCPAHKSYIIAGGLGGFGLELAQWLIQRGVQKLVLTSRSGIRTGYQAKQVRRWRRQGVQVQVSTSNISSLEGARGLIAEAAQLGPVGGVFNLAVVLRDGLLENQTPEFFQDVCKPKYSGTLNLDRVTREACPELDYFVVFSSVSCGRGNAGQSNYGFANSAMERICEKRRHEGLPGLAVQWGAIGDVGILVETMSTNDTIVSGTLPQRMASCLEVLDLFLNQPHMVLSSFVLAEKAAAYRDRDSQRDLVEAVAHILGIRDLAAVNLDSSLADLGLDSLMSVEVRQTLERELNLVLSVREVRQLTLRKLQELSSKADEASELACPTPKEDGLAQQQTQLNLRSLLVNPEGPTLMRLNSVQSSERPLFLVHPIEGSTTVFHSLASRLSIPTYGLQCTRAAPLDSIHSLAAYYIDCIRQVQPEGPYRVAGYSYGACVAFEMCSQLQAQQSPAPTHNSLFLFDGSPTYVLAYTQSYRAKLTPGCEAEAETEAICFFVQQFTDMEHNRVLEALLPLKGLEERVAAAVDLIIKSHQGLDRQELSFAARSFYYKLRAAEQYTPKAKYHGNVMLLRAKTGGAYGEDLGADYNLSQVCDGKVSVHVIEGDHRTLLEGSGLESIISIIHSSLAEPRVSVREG
As to the kind of experiment: FASN enzyme activity assay, fluorescence-based detection of CoA with CPM. In kind it is biochemical. To be noted: 5 nM FASN, 150 μM NADPH, 10 μM acetyl-CoA, 25 μM malonyl-CoA, 90 minutes incubation; read-out: IC50 data for Compounds of Formulae I-V/V(a): Activity. The method in brief:
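CoA product reacted with thiol-reactive CPM (diluted to 50 μM in 70% ethanol), read at 390/530 nm after 30 min. Preceding reaction: 90 min, 5 nM recombinant GST-FASN, 150 μM NADPH, 10 μM acetyl-CoA, 25 μM malonyl-CoA, pH 7.5 HEPES, 0.5% DMSO. IC50s fitted by nonlinear sigmoidal regression.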
Regarding `CNc1c(-c2ccc(OC3CCN(C(=O)[C@H]4CCCO4)CC3)cc2)ccc2cccnc12` [Example 325, {4-[4-(8-Methylaminoquinolin-7-yl)-phenoxy]-piperidin-1-yl}-(R)-tetrahydrofuran-2-yl-methanone], the IC50 fell in the range of 1 to 99 nM.
For the molecule `CCC(=O)N1CCC(Oc2ccc(-c3ccc4cccnc4c3NC)cc2)CC1` [Example 326, 1-{4-[4-(8-Methylaminoquinolin-7-yl)-phenoxy]-piperidin-1-yl}-propan-1-one], the IC50 was 100 to 999 nM.
Regarding `COCCNc1c(-c2ccc(OC3CCN(C(=O)[C@H]4CCCO4)CC3)cc2)ccc2cccnc12` [Example 327, (4-{4-[8-(2-Methoxyethylamino)-quinolin-7-yl]-phenoxy}-piperidin-1-yl)-(R)-tetrahydrofuran-2-yl-methanone], the IC50 lay in the range of 1 to 99 nM.
With `CCC(=O)N1CCC(Oc2ccc(-c3ccc4cccnc4c3NCCOC)cc2)CC1` [Example 328, 1-(4-{4-[8-(2-Methoxyethylamino)-quinolin-7-yl]-phenoxy}-piperidin-1-yl)-propan-1-one], the IC50 is 100 to 999 nM.
The figure for `CN(C)CCNc1c(-c2ccc(OC3CCN(C(=O)[C@H]4CCCO4)CC3)cc2)ccc2cccnc12` [Example 329, (4-{4-[8-(2-Dimethylaminoethylamino)-quinolin-7-yl]-phenoxy}-piperidin-1-yl)-(R)tetrahydrofuran-2-yl-methanone] is 1 to 99 nM; for `CCC(=O)N1CCC(Oc2ccc(-c3ccc4cccnc4c3C#N)cc2)CC1` [Example 330, 7-[4-(1-Propionyl-piperidin-4-yloxy)-phenyl]-quinoline-8-carbonitrile] it is 100 to 999 nM; for `CN(C)c1c(-c2ccc(OC3CCN(C(=O)[C@H]4CCCO4)CC3)cc2)ccc2cccnc12` [Example 331, [4-[4-[8-(Dimethylamino)-7-quinolyl]phenoxy]-1-piperidyl]-[(2R)-tetrahydro-furan-2-yl]methanone] it is 1 to 99 nM.
`CCC(=O)N1CCC(Oc2ccc(-c3ccc4cccnc4c3N(C)C)cc2)CC1` [Example 332, 1-{4-[4-(8-Dimethylaminoquinolin-7-yl)-phenoxy]-piperidin-1-yl}-propan-1-one]: the IC50 was in the range of 1000 to 10000 nM.
The figure for `CN(C)c1c(-c2ccc(OC3CCN(C(=O)C4CC4)CC3)cc2)ccc2cccnc12` [Example 333, Cyclopropyl-{4-[4-(8-dimethylamino-quinolin-7-yl)-phenoxy]-piperidin-1-yl}-methanone] is 1000 to 10000 nM; for `O=C([C@H]1CCCO1)N1CCC(Oc2ccc(-c3ccc4cccnc4c3NCCN3CCCC3)cc2)CC1` [Example 334, (4-{4-[8-(2-Pyrrolidin-1-yl-ethylamino)-quinolin-7-yl]-phenoxy}-piperidin-1-yl)-(R)-tetrahydrofuran-2-yl-methanone] it is 100 to 999 nM; for `CCC(=O)N1CCC(Oc2ccc(-c3ccc4cccnc4c3NCCN3CCCC3)cc2)CC1` [Example 335, 1-(4-{4-[8-(2-Pyrrolidin-1-yl-ethylamino)-quinolin-7-yl]-phenoxy}-piperidin-1-yl)-propan-1-one] it is 1000 to 10000 nM.
The figure for `NC(=O)c1c(-c2ccc(OC3CCN(C(=O)[C@H]4CCCO4)CC3)cc2)ccc2cccnc12` [Example 336, 7-[4-[[1-[(2R)-Tetrahydrofuran-2-carbonyl]-4 piperidyl]oxy]phenyl]quinoline-8-carboxamide] is 100 to 999 nM.
For the molecule `CCC(=O)N1CCC(Oc2ccc(-c3ccc4cccnc4c3C(N)=O)cc2)CC1` [Example 337, 7-[4-(1-Propionyl-piperidin-4-yloxy)-phenyl]-quinoline-8-carboxylic acid amide], the IC50 was in the range of 1000 to 10000 nM.
Consider `CCC(=O)N1CC[C@H](Oc2ccc(-c3cnc4ccccc4c3)cc2)C1` [Example 343, (S)-1-(3-(4-(Quinolin-3-yl)phenoxy)pyrrolidin-1-yl)propan-1-one, HCl], for which the IC50 lay in the range of 1000 to 10000 nM.
In the case of `CCC(=O)N1CC[C@@H](Oc2ccc(-c3ccc4cccnc4c3)cc2)C1` [Example 344, (R)-1-(3-(4-(Quinolin-7-yl)phenoxy)pyrrolidin-1-yl)propan-1-one, HCl], the IC50 lay within 100 to 999 nM.
`CCC(=O)N1CC[C@@H](Oc2ccc(-c3cnc4ccccc4c3)cc2)C1` [Example 345, (R)-1-(3-(4-(quinolin-3-yl)phenoxy)pyrrolidin-1-yl)propan-1-one, HCl]: the IC50 was 1000 to 10000 nM.
For `CCC(=O)N1CCC(Oc2ccc(-c3cc(C)c4cccnc4c3)cc2)CC1` [Example 346, 1-(4-(4-(5-Methylquinolin-7-yl)phenoxy)piperidin-1-yl)propan-1-one, HCl], the IC50 was 100 to 999 nM.
In the case of `Cc1cc(-c2ccc(OC3CCN(C(=O)C4CC4)CC3)cc2)cc2ncccc12` [Example 347, Cyclopropyl(4-(4-(5-methylquinolin-7-yl)phenoxy)piperidin-1-yl)methanone, HCl], the IC50 fell in the range of 100 to 999 nM.
For `CCC(=O)N1CCC(Oc2ccc(-c3cc(C)cc4ncccc34)cc2)CC1` [Example 348, 1-(4-(4-(7-methylquinolin-5-yl)phenoxy)piperidin-1-yl)propan-1-one HCl], the IC50 is 1 to 99 nM.
As for `Cc1cc(-c2ccc(OC3CCN(C(=O)C4CC4)CC3)cc2)c2cccnc2c1` [Example 349, Cyclopropyl-{4-[4-(7-methyl-quinolin-5-yl)-phenoxy]-piperidin-1-yl}-methanone, HCl], the IC50 is 1 to 99 nM.
With `CCC(=O)N1CCC(Oc2ccc(-c3c(C)ccc4ncccc34)cc2)CC1` [Example 350, 1-(4-(4-(6-Methylquinolin-5-yl)phenoxy)piperidin-1-yl)propan-1-one HCl], the IC50 was in the range of 100 to 999 nM.
Consider `Cc1ccc2ncccc2c1-c1ccc(OC2CCN(C(=O)C3CC3)CC2)cc1` [Example 351, Cyclopropyl(4-(4-(6-methylquinolin-5-yl)phenoxy)piperidin-1-yl)methanone, HCl], for which the IC50 lay within 100 to 999 nM.
On to `Cc1cc(-c2ccc(OC3CCN(C(=O)[C@H]4CCCO4)CC3)cc2)cc2ncccc12` [Example 352, (R)-(4-(4-(5-Methylquinolin-7-yl)phenoxy)piperidin-1-yl)(tetrahydrofuran-2-yl)methanone], for which the IC50 lay in the range of 1 to 99 nM.
`Cc1cc(-c2ccc(OC3CCN(C(=O)[C@H]4CCCO4)CC3)cc2)c2cccnc2c1` [Example 353, (R)-(4-(4-(7-Methylquinolin-5-yl)phenoxy)piperidin-1-yl)(tetrahydrofuran-2-yl)methanone]: the IC50 fell in the range of 1 to 99 nM.
With `Cc1c(-c2ccc(OC3CCN(C(=O)C(F)(F)F)CC3)cc2)ccc2cccnc12` [Example 357, 2,2,2-Trifluoro-1-{4-[4-(8-methyl-quinolin-7-yl)-phenoxy]-piperidin-1-yl}-ethanone], the IC50 was 1000 to 10000 nM.
For `Cc1c(-c2ccc(OC3CCN(C(=O)C(C)(F)F)CC3)cc2)ccc2cccnc12` [Example 358, 2,2-Difluoro-1-{4-[4-(8-methylquinolin-7-yl)-phenoxy]-piperidin-1-yl}-propan-1-one, HCl], the IC50 lay within 100 to 999 nM.
As for `Cc1c(-c2ccc(OC3CCN(C(=O)C(C)F)CC3)cc2)ccc2cccnc12` (stereo not drawn) [Example 359, 2-Fluoro-1-{4-[4-(8-methylquinolin-7-yl)-phenoxy]-piperidin-1-yl}-propan-1-one, HCl], the IC50 lay in the range of 1 to 99 nM.
As to `Cc1c(-c2ccc(O[C@@H]3C[C@H]4CC[C@@H](C3)N4C(=O)[C@H]3CCCO3)cc2)ccc2cccnc12` [Example 360, {exo-3-[4-(8-Methylquinolin-7-yl)-phenoxy]-8-aza-bicyclo[3.2.1]oct-8-yl}-(R)-tetrahydrofuran-2-yl-methanone, HCl], the IC50 lay in the range of 100 to 999 nM.
For the molecule `CCC(=O)N1[C@@H]2CC[C@H]1C[C@H](Oc1ccc(-c3ccc4cccnc4c3C)cc1)C2` [Example 361, 1-{exo-3-[4-(8-Methylquinolin-7-yl)-phenoxy]-8-aza-bicyclo[3.2.1]oct-8-yl}-propan-1-one HCl], the IC50 is 1000 to 10000 nM.
Turning to `Cc1c(-c2ccc(O[C@H]3CCN(C(=O)[C@H]4CCCO4)C[C@H]3F)cc2)ccc2cccnc12` [Example 366, {cis-3-Fluoro-4-[4-(8-methylquinolin-7-yl)-phenoxy]-piperidin-1-yl}-(R)-tetrahydrofuran-2-yl-methanone HCl], the IC50 lay within 1 to 99 nM.
The figure for `CCC(=O)N1[C@@H]2CC[C@H]1C[C@@H](Oc1ccc(-c3ccc4cccnc4c3C)cc1)C2` [Example 369, 1-{endo-3-[4-(8-Methylquinolin-7-yl)-phenoxy]-8-aza-bicyclo[3.2.1]oct-8-yl}-propan-1-one, HCl] is 100 to 999 nM; for `Cc1c(-c2ccc(O[C@H]3C[C@H]4CC[C@@H](C3)N4C(=O)C3CC3)cc2)ccc2cccnc12` [Example 370, Cyclopropyl-{endo-3-[4-(8-methylquinolin-7-yl)-phenoxy]-8-aza-bicyclo-[3.2.1]oct-8-yl}-methanone, HCl] it is 100 to 999 nM; for `Cc1c(-c2ccc(O[C@H]3C[C@H]4CC[C@@H](C3)N4C(=O)[C@H]3CCCO3)cc2)ccc2cccnc12` [Example 371, {endo-3-[4-(8-Methylquinolin-7-yl)-phenoxy]-8-aza-bicyclo[3.2.1]oct-8-yl}-(R)-tetrahydrofuran-2-yl-methanone, HCl] it is 1 to 99 nM.
The figure for `Cc1c(-c2ccc(OC3CCN(C(=O)C4CC4)CC3C)cc2)ccc2cccnc12` (stereo not drawn) [Example 376, Cyclopropyl-{3-methyl-4-[4-(8-methylquinolin-7-yl)-phenoxy]-piperidin-1-yl}-methanone, TFA salt] is 1 to 99 nM; for `CCC(=O)N1CCC(Oc2ccc(-c3ccc(-c4ccccc4)nc3)cc2)CC1` [Example 378, 1-{4-[4-(6-Phenyl-pyridin-3-yl)-phenoxy]-piperidin-1-yl}-propan-1-one] it is 1000 to 10000 nM.
Turning to `CC(C)C(=O)N1CCC(Oc2ccc(-c3ccc(-c4ccccc4)nc3)cc2)CC1` [Example 379, 2-Methyl-1-{4-[4-(6-phenylpyridin-3-yl)-phenoxy]-piperidin-1-yl}-propan-1-one], the IC50 fell in the range of 1000 to 10000 nM.

The record behind these values is patent publication US9902696B2, “1,4-substituted piperidine derivatives” (Cephalon, Inc., priority 2015, dated 2018).
